The record followed here is patent publication US6441019B2, “Cyclocarbamate and cyclic amide derivatives” (Wyeth, priority 1999, dated 2002).

In general, melting point refers to the temperature of the solid-liquid transition.

For `CC1(C)OC(=O)Nc2cc(-c3cccc(Cl)c3)sc21` [Example 2, 6-(3-chlorophenyl)-1,4-dihydro-4,4-dimethyl-2H-thieno[3,2-d][1,3]oxazine-2-one], the melting point lay within 123 to 125 °C.

`CC1(C)OC(=O)Nc2sc(-c3cccc(Cl)c3)cc21` [Example 1, 6-(3-chlorophenyl)-1,4-dihydro-4,4-dimethyl-2H-thieno [2,3-d][1,3]oxazine-2-one] showed a melting point of 149 to 150 °C.
